Source: PubChem BioAssay (NCI)
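Values below derive from 48-hour exposures of cells grown in 96-well plates, with endpoints linearly interpolated between the two concentrations bracketing the appropriate inhibition level. GI50 = concentration required for 50% inhibition of growth. TGI: concentration producing complete growth inhibition.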

Key:
Assay in all cases: NCI-60 cell line screen, 48 h
LOX IMVI melanoma = test system: LOX IMVI melanoma
A498 renal = test system: A498 renal
IGROV1 ovarian = test system: IGROV1 ovarian
HOP-62 NSCLC = test system: HOP-62 NSCLC
PC-3 prostate = test system: PC-3 prostate
NCI-H226 lung = test system: NCI-H226 lung
UACC-62 melanoma = test system: UACC-62 melanoma
OVCAR-3 ovarian = test system: OVCAR-3 ovarian
OVCAR-5 ovarian = test system: OVCAR-5 ovarian
K-562 leukemia = test system: K-562 leukemia
ACHN renal = test system: ACHN renal
RPMI-8226 leukemia = test system: RPMI-8226 leukemia
HCC-2998 colon = test system: HCC-2998 colon
HCT-116 colon = test system: HCT-116 colon
U251 CNS = test system: U251 CNS
NCI/ADR-RES ovarian = test system: NCI/ADR-RES ovarian
SK-MEL-28 melanoma = test system: SK-MEL-28 melanoma
BT-549 breast = test system: BT-549 breast
OVCAR-4 ovarian = test system: OVCAR-4 ovarian
NCI-H522 lung = test system: NCI-H522 lung
UACC-257 melanoma = test system: UACC-257 melanoma
SNB-19 CNS = test system: SNB-19 CNS
MOLT-4 leukemia = test system: MOLT-4 leukemia
MCF7 breast = test system: MCF7 breast
OVCAR-8 ovarian = test system: OVCAR-8 ovarian
UO-31 renal = test system: UO-31 renal
CAKI-1 renal = test system: CAKI-1 renal
HS 578T breast = test system: HS 578T breast
A549 NSCLC = test system: A549 NSCLC
KM12 colon = test system: KM12 colon
SR leukemia = test system: SR leukemia
SF-268 CNS = test system: SF-268 CNS
NCI-H460 lung = test system: NCI-H460 lung
SW-620 colon = test system: SW-620 colon
SK-MEL-2 melanoma = test system: SK-MEL-2 melanoma
HL-60(TB) leukemia = test system: HL-60(TB) leukemia
TK-10 renal = test system: TK-10 renal
DU-145 prostate = test system: DU-145 prostate
SF-295 CNS = test system: SF-295 CNS
HOP-92 NSCLC = test system: HOP-92 NSCLC
NCI-H23 lung = test system: NCI-H23 lung
SNB-75 CNS = test system: SNB-75 CNS
MALME-3M melanoma = test system: MALME-3M melanoma
HT29 colon = test system: HT29 colon
SK-MEL-5 melanoma = test system: SK-MEL-5 melanoma
MDA-MB-435 = test system: MDA-MB-435
SN12C renal = test system: SN12C renal
SF-539 CNS = test system: SF-539 CNS
SK-OV-3 ovarian = test system: SK-OV-3 ovarian
COLO 205 colon = test system: COLO 205 colon
CCRF-CEM leukemia = test system: CCRF-CEM leukemia
T-47D breast = test system: T-47D breast
RXF 393 renal = test system: RXF 393 renal
786-0 renal = test system: 786-0 renal
M14 melanoma = test system: M14 melanoma
HCT-15 colon = test system: HCT-15 colon
MDA-MB-231 breast = test system: MDA-MB-231 breast

**Q.** Which results are given for `O=C1C=CC(=O)N1C1CCCCCCCCCCC1`?
**A.** GI50 (LOX IMVI melanoma): 2.44 µM; TGI (LOX IMVI melanoma): 6.72 µM; GI50 (A498 renal): 16.5 µM; TGI (A498 renal): > 93.7 µM; GI50 (IGROV1 ovarian): 13.6 µM; TGI (IGROV1 ovarian): > 49.2 µM; GI50 (HOP-62 NSCLC): 31.5 µM; TGI (HOP-62 NSCLC): > 100 µM; GI50 (PC-3 prostate): 14.2 µM; TGI (PC-3 prostate): 30.9 µM; GI50 (NCI-H226 lung): 9.75 µM; TGI (NCI-H226 lung): 24.3 µM; GI50 (UACC-62 melanoma): 14.7 µM; TGI (UACC-62 melanoma): 28.5 µM; GI50 (OVCAR-3 ovarian): 6.4 µM; TGI (OVCAR-3 ovarian): 16.2 µM; GI50 (OVCAR-5 ovarian): 19.8 µM; TGI (OVCAR-5 ovarian): 48.7 µM; GI50 (K-562 leukemia): 2.93 µM; TGI (K-562 leukemia): 12.8 µM; GI50 (ACHN renal): 2.73 µM; TGI (ACHN renal): 7.69 µM; GI50 (RPMI-8226 leukemia): 4.91 µM; TGI (RPMI-8226 leukemia): 34 µM; GI50 (HCC-2998 colon): 28.9 µM; TGI (HCC-2998 colon): > 73.8 µM; GI50 (HCT-116 colon): 2.15 µM; TGI (HCT-116 colon): 4.94 µM; GI50 (U251 CNS): 27 µM; TGI (U251 CNS): > 86.9 µM; GI50 (NCI/ADR-RES ovarian): 30.6 µM; TGI (NCI/ADR-RES ovarian): > 100 µM; GI50 (SK-MEL-28 melanoma): 14.5 µM; TGI (SK-MEL-28 melanoma): 28.3 µM; GI50 (BT-549 breast): 11.3 µM; TGI (BT-549 breast): 24.6 µM; GI50 (OVCAR-4 ovarian): 11.5 µM; TGI (OVCAR-4 ovarian): 24.2 µM; GI50 (NCI-H522 lung): 1.7 µM; TGI (NCI-H522 lung): 3.37 µM; GI50 (UACC-257 melanoma): 13 µM; TGI (UACC-257 melanoma): 27.2 µM; GI50 (SNB-19 CNS): > 84.6 µM; TGI (SNB-19 CNS): > 100 µM; GI50 (MOLT-4 leukemia): 3.28 µM; TGI (MOLT-4 leukemia): 20.1 µM; GI50 (MCF7 breast): 3.58 µM; TGI (MCF7 breast): 16.3 µM; GI50 (OVCAR-8 ovarian): 13.9 µM; TGI (OVCAR-8 ovarian): 27.4 µM; GI50 (UO-31 renal): 3.42 µM; TGI (UO-31 renal): 14.2 µM; GI50 (CAKI-1 renal): 5.95 µM; TGI (CAKI-1 renal): 16.3 µM; GI50 (HS 578T breast): 17.8 µM; TGI (HS 578T breast): > 65.3 µM; GI50 (A549 NSCLC): 32.8 µM; TGI (A549 NSCLC): > 100 µM; GI50 (KM12 colon): 41.2 µM; TGI (KM12 colon): > 100 µM; GI50 (SR leukemia): 2.23 µM; TGI (SR leukemia): 23.8 µM; GI50 (SF-268 CNS): 19.2 µM; TGI (SF-268 CNS): 51.8 µM; GI50 (NCI-H460 lung): 81.1 µM; TGI (NCI-H460 lung): > 100 µM; GI50 (SW-620 colon): 2.59 µM; TGI (SW-620 colon): 8.14 µM; GI50 (SK-MEL-2 melanoma): 16.4 µM; TGI (SK-MEL-2 melanoma): 33.8 µM; GI50 (HL-60(TB) leukemia): 5.25 µM; TGI (HL-60(TB) leukemia): 15.9 µM; GI50 (TK-10 renal): 3.35 µM; TGI (TK-10 renal): 11.8 µM; GI50 (DU-145 prostate): 13.9 µM; TGI (DU-145 prostate): 27.2 µM; GI50 (SF-295 CNS): 78.7 µM; TGI (SF-295 CNS): > 100 µM; GI50 (HOP-92 NSCLC): 2.12 µM; TGI (HOP-92 NSCLC): 7.72 µM; GI50 (NCI-H23 lung): 19.1 µM; TGI (NCI-H23 lung): 47.5 µM; GI50 (SNB-75 CNS): 12.7 µM; TGI (SNB-75 CNS): > 79.9 µM; GI50 (MALME-3M melanoma): 5.07 µM; TGI (MALME-3M melanoma): 15.8 µM; GI50 (HT29 colon): 7.86 µM; TGI (HT29 colon): 26.4 µM; GI50 (SK-MEL-5 melanoma): 16.4 µM; TGI (SK-MEL-5 melanoma): 37 µM; GI50 (MDA-MB-435): 13.7 µM; TGI (MDA-MB-435): 28.5 µM; GI50 (SN12C renal): 15.6 µM; TGI (SN12C renal): 33 µM; GI50 (SF-539 CNS): 15.3 µM; TGI (SF-539 CNS): 29.4 µM; GI50 (SK-OV-3 ovarian): > 65.5 µM; TGI (SK-OV-3 ovarian): > 100 µM; GI50 (COLO 205 colon): 2.78 µM; TGI (COLO 205 colon): 8.16 µM; GI50 (CCRF-CEM leukemia): 0.939 µM; TGI (CCRF-CEM leukemia): 4.93 µM; GI50 (T-47D breast): 3.08 µM; TGI (T-47D breast): 11.3 µM; GI50 (RXF 393 renal): 4.96 µM; TGI (RXF 393 renal): 17.1 µM; GI50 (786-0 renal): 16.1 µM; TGI (786-0 renal): 29.7 µM; GI50 (M14 melanoma): 10.4 µM; TGI (M14 melanoma): 25.8 µM; GI50 (HCT-15 colon): 3.72 µM; TGI (HCT-15 colon): 14.9 µM; GI50 (MDA-MB-231 breast): 14.5 µM; TGI (MDA-MB-231 breast): 30 µM
